According to article PMC12040169 (PLOS Biology, 2025):

Test: in vitro
Details: human, hela cells

| Compound | viability at 28.5 h, 10 µM [%] |
| --- | --- |
| O=C(NCCc1ccccc1)c1ccc(N2CCN(C(=O)c3ccccc3C(F)(F)F)CC2)nn1 [CBK153212] | 83.2 |

Same assay, conditions: human, hela cells, % viability

| Compound | viability at 28.5 h, 10 µM [%] |
| --- | --- |
| CCOC(=O)N1CCC(n2c(=O)[nH]c3ccccc32)CC1 [CBK149867] | 79.6 |
| COc1ccc(OC(=O)N2CCC(n3c(=O)[nH]c4ccccc43)CC2)cc1 [CBK149868] | 102 |
| CC(=O)NCc1cccc(-c2cc(C(=O)Nc3ccc4c(c3)OCCO4)cnc2O)c1 [CBK149871T] | 91.6 |
| c1ccc(CC(Cc2nc3ccccc3[nH]2)c2nc3ccccc3[nH]2)cc1 (stereo not drawn) [CBK150452] | 107 |
| O=c1nc(-c2ccccc2Cl)oc2ccccc12 [CBK152263] | 89.9 |
| O=c1nc(-c2ccco2)oc2ccccc12 [CBK152421] | 112 |
| Cc1cccc2c(=O)nc(-c3ccccc3Cl)oc12 [CBK152422] | 106 |
| O=C(Nc1sc2c(c1C(=O)O)CCC2)c1cccs1 [CBK152437] | 95.2 |
| COc1cccc(-c2ccc3c(c2)[nH]c(=O)n3C2CCN(C(=O)c3ccc(C)c(OC)c3)CC2)c1 [CBK153141] | 102 |
| Cc1ccc(CNC(=O)Cn2nnc(-c3ccc(CNCC(F)(F)F)cc3)n2)cc1 [CBK153204T] | 116 |
| O=C(NCC1CC1)c1ccc(N2CCN(C(=O)c3ccccc3C(F)(F)F)CC2)nn1 [CBK153220] | 111 |
| O=C1NC(=O)C(CC(=O)N2CCC3(CCCNC3)C2)N1 (stereo not drawn) [CBK153232C] | 79.2 |
| O=C(c1cncnc1)N1CCC2(CCCNC2)C1 (stereo not drawn) [CBK153237C] | 89.7 |
| COC(=O)CCC(=O)Nc1snnc1-c1ccc(Cl)cc1 [CBK153241] | 99.3 |
| O=C(CC1CCCCC1)Nc1snnc1-c1ccc(Cl)cc1 [CBK153245] | 114 |
| O=C(Nc1snnc1-c1ccc(Cl)cc1)c1ccc(OC(F)(F)F)cc1 [CBK153247] | 70.5 |
| O=C(OCc1ccccc1)N1CCC(C2OCc3cc(-c4ccc(C(=O)N5CCCC5)cc4)ccc3O2)CC1 (stereo not drawn) [CBK153260] | 108 |
| O=C(OCc1ccccc1)N1CCC(C2OCc3cc(-c4ccc(C(=O)N5CCCCC5)cc4)ccc3O2)CC1 (stereo not drawn) [CBK153262] | 93.8 |
| O=S(=O)(c1ccccc1)N1Cc2cccc3[nH]cc(c23)C1 [CBK153275] | 102 |
| CC1(C)CC(=O)C=C(C(=O)NCc2c(F)cccc2F)O1 [CBK153287] | 91.2 |
| CSCCCNC(=O)c1ccc2nc[nH]c2c1 [CBK153314] | 116 |
| O=C(NCc1c(F)cccc1F)c1ccc2nc[nH]c2c1 [CBK153315] | 83 |

| Compound | viability at 28.5 h, 10 µM [%] |
| --- | --- |
| O=C(NCc1cccs1)c1ccc2nc[nH]c2c1 [CBK153320] | 92.1 |
| Cc1csc(C(C)NC(=O)c2cccnc2NCc2ccc3c(c2)OCO3)n1 (stereo not drawn) [CBK153425] | 108 |
| O=C(NCc1ccc([N+](=O)[O-])cc1)c1cccnc1NCc1ccc2c(c1)OCO2 [CBK153436] | 98.6 |
| CCOC(=O)CCCCSc1c(CC)c(C)nc2ccccc12 [CBK153458T] | 96 |
| CCc1c(C)nc2ccccc2c1SC[C@H](NC(C)=O)C(=O)O [CBK153459T] | 99.2 |
| Cc1ccc(S(=O)(=O)Nc2ccc3[nH]ccc3c2)cc1 [CBK153519] | 92.5 |
| O=S(=O)(Nc1cccc2[nH]ccc12)c1ccc(F)cc1 [CBK153522] | 60.9 |
| O=S(=O)(Nc1cccc2[nH]ccc12)c1sc(Cl)cc1Br [CBK153552] | 69 |
| O=S(=O)(Nc1cccc2cc[nH]c12)c1cc(Cl)ccc1Cl [CBK153581] | 84.6 |
| O=S(=O)(CC(F)(F)F)Nc1cccc2cc[nH]c12 [CBK153585] | 99.5 |
| O=S(=O)(Nc1cccc2cc[nH]c12)c1ccc(F)cc1F [CBK153586] | 85.3 |
| N#CCCCN1CCC(Oc2nccnc2OCc2c(F)cccc2Cl)CC1 [CBK153630] | 102 |
| N#CCCCN1CCC(Oc2nccnc2OCc2ccccc2C(F)(F)F)CC1 [CBK153636] | 102 |
| N#CCCCN1CCC(Oc2nccnc2OCc2cccc(C(F)(F)F)c2F)CC1 [CBK153646] | 100 |
| CN(C)C(=O)c1ccc(Cn2ccnc(N3CCC(Sc4ccccc4)CC3)c2=O)cc1 [CBK153651] | 107 |
| CN(C)C(=O)Cc1ccc(Cn2ccnc(N3CCC(Sc4ccccc4)CC3)c2=O)cc1 [CBK153652] | 112 |
| N#Cc1ccc(Cn2ccnc(N3CCC(Sc4ccccc4)CC3)c2=O)cc1 [CBK153653] | 98.2 |
| O=c1c(N2CCC(Sc3ccccc3)CC2)nccn1Cc1ccc([N+](=O)[O-])cc1 [CBK153654] | 108 |
| O=c1c(N2CCC(Sc3ccccc3)CC2)nccn1Cc1ccc(-n2cncn2)cc1 [CBK153655] | 90.9 |
| CCOC(=O)c1c(C)nc2ccccc2c1O [CBK153666] | 110 |
| O=C(c1cnoc1-c1ccc(F)cc1)N1CCCC1 [CBK153707] | 97.9 |
| O=C(NCc1cccc(C(F)(F)F)c1)c1cnoc1-c1ccc(Br)cc1 [CBK153718] | 96.9 |

| Compound | viability at 28.5 h, 10 µM [%] |
| --- | --- |
| CS(=O)(=O)c1ccc(Cn2ccnc(N3CCN(C(=O)Cc4cccs4)CC3)c2=O)cc1 [CBK153773] | 89.9 |
| CS(=O)(=O)c1ccc(Cn2ccnc(N3CCN(C(=O)c4ccc5occc5c4)CC3)c2=O)cc1 [CBK153777] | 90.8 |
| COC(=O)c1ccc(CN2CCC(Oc3nccnc3OCc3ccc(Cl)c(Cl)c3)CC2)o1 [CBK153782] | 84.2 |
| O=C(CN1CCC(Oc2nccnc2OCc2ccc(Cl)c(Cl)c2)CC1)Nc1ccccc1 [CBK153783] | 110 |
| Cc1nc(CN2CCC(Oc3nccnc3OCc3ccc(Cl)c(Cl)c3)CC2)cs1 [CBK153787] | 95.9 |
| Clc1ccc(COc2nccnc2OC2CCN(Cc3ccncc3)CC2)cc1Cl [CBK153792] | 107 |
| O=C(NCc1cccs1)c1cnoc1-c1ccc([N+](=O)[O-])cc1 [CBK153845] | 82.9 |
| O=C(OCc1ccccc1)N1CCC(c2nc3ccc(Br)cc3[nH]2)CC1 [CBK153849] | 93.7 |
| CCc1ccc(CNC(=O)Cn2nnc(-c3ccc(CN4CCC(C)CC4)cn3)n2)cc1 [CBK153928C] | 93.6 |
| CCOc1ccc(OC(=O)C2CCN(C(=O)CC(C)C)CC2)cc1 [CBK154228] | 95.3 |
| O=S(=O)(CC(F)(F)F)Nc1cccc(-c2nnn[nH]2)c1 [CBK154272] | 83.9 |
| O=S(=O)(Nc1ccc(-c2nnn[nH]2)cc1)c1cc(Cl)c(Cl)s1 [CBK154745] | 116 |
| O=S(=O)(CC(F)(F)F)Nc1ccc(-c2nnn[nH]2)cc1 [CBK154754] | 107 |
| O=S(=O)(Nc1ccc(-c2nnn[nH]2)cc1)c1ccc(F)c(C(F)(F)F)c1 [CBK154759] | 96.9 |
| COc1ccc(OC(=O)C2CCN(C(=O)CC(C)C)CC2)c([N+](=O)[O-])c1 [CBK154770] | 97.4 |
| COc1cccc(C(=O)N2CCN(C(=O)Nc3ccsc3)CC2)c1 [CBK154782] | 91.5 |
| COc1cccc(C(=O)N2CCN(C(=O)Nc3ccccc3Br)CC2)c1 [CBK154783] | 94.4 |
| COc1cccc(C(=O)N2CCN(C(=O)Nc3ccc(C(F)(F)F)cc3)CC2)c1 [CBK154788] | 96.4 |
| O=C(NCC1CCOCC1)c1cc(-c2cccnc2)cnc1NCc1ccc2c(c1)OCO2 [CBK154825] | 104 |
| Cc1ccc(CNCCn2nnc(-c3ccc(CN4CCC(C)CC4)cc3)n2)cc1 [CBK154882T] | 93.3 |
| O=C(NCc1ccc(OC(F)(F)F)cc1)c1cnoc1-c1ccc(Br)cc1 [CBK154885] | 100 |
| Cc1cnc(CNC(=O)c2cnoc2-c2ccccc2)cn1 [CBK154926] | 98 |

| Compound | viability at 28.5 h, 10 µM [%] |
| --- | --- |
| O=C(NCc1ccc(OC(F)(F)F)cc1)c1cnoc1-c1ccc(F)cc1 [CBK154952] | 100 |
| O=C(NCc1ccco1)c1cnoc1-c1ccc(F)cc1 [CBK154960] | 116 |
| CNC(=O)c1c(C)nc2ccccc2c1SCCC(=O)O [CBK154987T] | 101 |
| CS(=O)(=O)c1ccc(CN2C(=O)CC3(CCN(C(=O)Cc4cccs4)CC3)C2=O)cc1 [CBK155013] | 100 |
| CC(C)(C)c1ccc(C(=O)N2CCC3(CC2)CC(=O)N(Cc2ccc(S(C)(=O)=O)cc2)C3=O)cc1 [CBK155018] | 106 |
| COc1cccc(C(=O)N2CCC(NC(=O)Cc3ccc(F)cc3)CC2)c1 [CBK155027] | 85 |
| O=S(=O)(Nc1cccc(-c2nnn[nH]2)c1)c1sc(Cl)cc1Br [CBK155035] | 94.6 |
| CS(=O)(=O)c1ccc(-c2ccc(OC3CCN(C(=O)CCCc4ccc(F)cc4)CC3)nc2)cc1 [CBK155044] | 94.8 |
| CN(C)C(=O)c1ccc(-c2ccc(OC3CCN(C(=O)CC(C)(C)c4ccccc4)CC3)nc2)cc1 [CBK155047] | 101 |
| CN(C)C(=O)c1ccc(-c2ccc(OC3CCN(C(=O)CCC(=O)N4CCCC4)CC3)nc2)cc1 [CBK155051] | 108 |
| O=C(O)c1cccc(NS(=O)(=O)c2ccc(OC(F)(F)F)cc2)c1 [CBK155077] | 92.7 |
| Cn1nc(-c2ccc(S(=O)(=O)Nc3cccc(C(=O)O)c3)s2)cc1C(F)(F)F [CBK155080] | 86.9 |
| O=C(O)c1cccc(NS(=O)(=O)c2ccc(CNC(=O)c3ccc(Cl)cc3)s2)c1 [CBK155085] | 104 |
| CN(C)CCN(Cc1ccccc1)C(=O)NCc1c(Cl)cccc1Cl [CBK155107] | 97.3 |
| CCN(Cc1ccncc1)C(=O)NCCCSC [CBK155125] | 88.8 |
| CCN(Cc1ccncc1)C(=O)NCc1cnc(C)cn1 [CBK155128] | 105 |
| CCN(Cc1ccncc1)C(=O)Nc1ccc(N(CC)CC)cc1 [CBK155141] | 90.3 |
| CCN(Cc1ccncc1)C(=O)NCCOc1ccccc1 [CBK155148] | 100 |
| CCN(Cc1ccncc1)C(=O)NCCc1ccc(OC)cc1 [CBK155149] | 94.6 |
| CN1CCN(CCCNC(=O)N2CCN(c3ccccc3)CC2)CC1 [CBK155168] | 101 |
